Reference: US20250134874A1, “PHARMACEUTICAL FORMULATIONS COMPRISING 3-({[(4R)-7-{METHYL[4-(PROPAN-2-YL)PHENYL]AMINO}-3,4-DIHYDRO-2H-1-BENZOPYRAN-4-YL]METHYL}AMINO)PYRIDINE-4-CARBOXYLIC ACID” (TACHYON THERAPEUTICS, INC., priority 2021, published 2025)

System: 301 cancer cell lines from different tumor types (OncoPanel; HD Biosciences)
Experiment: 2D cell viability inhibition assay (CellTiter-Glo) in cancer cell line panel
Assay type: cell-based
Set-up: key to AUC: AUC as fraction of the no-inhibition area (dose range × 0–100 % of control)
Details: for Emax: in %
Experimental: In a larger screening study, compound 1 was evaluated across a broad cancer cell line panel (OncoPanel; HD Biosciences) composed of 301 cancer cell lines from different tumor types.
2D cell viability inhibition assays were performed in multiwell plates seeded with cells from the panel. After seeding, the plates were cultured overnight in a humidified incubator at 37° C. to promote adherence. Assays were initiated in individual wells by adding either DMSO as a vehicle control, growth media as a blank, or serially diluted compound 1 (10 μM to 0.0005 μM with 1:3 serial dilution). Cultures were incubated for 168 hours after which the number of viable cells in each test well was assessed using the CellTiter-Glo® Luminescent Cell Viability Assay. Luminescence readouts were performed using an EnVision® Multilabel Reader and the compound 1 readouts were normalized to the DMSO control readouts, expressed as a percent of the control. Outliers were flagged out by visual inspection. Percent of control was plotted against the corresponding compound 1 concentration and the absolute IC50 value was determined using four-parameter logistic non-linear regression as the concentration where inhibition was 50% of the control. For maximum inhibition <50%, the absolute IC50 was reported as >10. In addition to EC50 and IC50, AUC was determined and was normalized to the area corresponding to theoretical no-inhibition (the rectangular area defined by the compound dose range and 0 to 100 in y). Emax was recorded as the minimum in y with the compound dose range. For those cell lines where Emax>40, EC50 was manually set to 10 μM. A hierarchical clustering algorithm based on Euclidean distance between the standardized input values and “Ward.D” method as implemented in R hclust function was used to visualize the compound 1 cellular potency data. The sensitive/moderate/resistant calls for each cell line was determined by visually inspecting the resulting clustering dendrogram. All the analyses were done in R Core Team.

[1] = Homo sapiens, TE-5, TE5 cell line
[2] = Homo sapiens, TE-6, TE6 cell line
[3] = Homo sapiens, TE-9, TE9 cell line
[4] = Homo sapiens, TE-10, TE10 cell line
[5] = Homo sapiens, TE-11, TE11 cell line
[6] = Homo sapiens, TF-1, TF1 cell line
[7] = Homo sapiens, THP-1, THP1 cell line
[8] = Homo sapiens, TOV112D, TOV112D cell line
[9] = Homo sapiens, TT, T.T cell line
[10] = Homo sapiens, U2OS, U2OS cell line
[11] = Homo sapiens, U-87 MG, U87MG cell line
[12] = Homo sapiens, U-937, U937 cell line
[13] = Homo sapiens, UMUC3, UMUC3 cell line
[14] = Homo sapiens, WM 266-4, WM2664 cell line
[15] = Homo sapiens, WM-115, WM115 cell line
[16] = Homo sapiens, WSUDLCL2, WSUDLCL2 cell line

Structure (SMILES): CC(C)c1ccc(N(C)c2ccc3c(c2)OCC[C@H]3CNc2cnccc2C(=O)O)cc1 [Compound 1, 3-({[(4R)-7-{methyl[4-(propan-2-yl)phenyl]amino}-3,4-dihydro-2H-1-benzopyran-4-yl]methyl}amino)pyridine-4-carboxylic acid]
- IC50 (Homo sapiens, TALL-1, TALL1 cell line): 1.8 nM
- EC50 [1]: 6.64 nM
- IC50 [1]: 8.47 nM
- EC50 [2]: 4.83 nM
- IC50 [2]: 6.68 nM
- EC50 [3]: 3.75 nM
- IC50 [3]: 6.89 nM
- EC50 [4]: 9.3 nM
- IC50 [4]: 16.3 nM
- EC50 [5]: 3.85 nM
- IC50 [5]: 4.28 nM
- IC50 (Homo sapiens, TE-15, 168 h, TE15, oesophagus, squamous cell carcinoma, 168 hours): > 10000 nM
- EC50 [6]: 1.58 nM
- IC50 [6]: 2.59 nM
- EC50 [7]: 4.92 nM
- IC50 [7]: 6.15 nM
- EC50 [8]: 4.26 nM
- IC50 [8]: 6.23 nM
- EC50 [9]: 4.37 nM
- IC50 [9]: 6.75 nM
- EC50 [10]: 7.71 nM
- IC50 [10]: 9.01 nM
- EC50 [11]: ≥ 10000 nM
- IC50 [11]: 14.7 nM
- EC50 [12]: 2.73 nM
- IC50 [12]: 2.55 nM
- IC50 (Homo sapiens, UACC-812, 168 h, UACC812, breast, ductal carcinoma, 168 hours): > 10000 nM
- EC50 [13]: 21.9 nM
- IC50 [13]: 39.5 nM
- IC50 (Homo sapiens, VCaP, 168 h, prostate, adenocarcinoma): > 10000 nM
- EC50 [14]: ≥ 10000 nM
- IC50 [14]: 27.5 nM
- EC50 [15]: 2.5 nM
- IC50 [15]: 478 nM
- EC50 [16]: 4.21 nM
- IC50 [16]: 5.67 nM
- AUC (J82 cell line): 0.6749
- AUC (JEKO1 cell line): 0.1172
- AUC (JIMT1 cell line): 0.5519
- AUC (JURKAT cell line): 0.1171
- Emax (JURKAT cell line): 0.212
- AUC (K562 cell line): 0.275
- AUC (KALS1 cell line): 0.6559
- AUC (KARPAS422 cell line): 0.329
- Emax (KARPAS422 cell line): 8.084
- AUC (KASUMI1, haematopoietic and lymphoid tissue, acute myeloid leukaemia, 168 hours): 0.8823
- AUC (KATOIII cell line): 0.49
- AUC (KG1, haematopoietic and lymphoid tissue, acute myeloid leukaemia, 168 hours): 0.9592
- AUC (KM12 cell line): 0.3482
- Emax (KM12 cell line): 12.24
- AUC (KMS11 cell line): 0.3918
- Emax (KMS11 cell line): 9.983
- AUC (KNS62 cell line): 0.4761
- Emax (KNS62 cell line): 18.84
- AUC (KNS81 cell line): 0.6309
- IC50 (KNS81 cell line): > 10000 nM
- AUC (KU1919 cell line): 0.3956
- Emax (KU1919 cell line): 14.57
- AUC (KURAMOCHI, ovary, undifferentiated carcinoma, 168 hours): 0.8742
- AUC (KYSE30 cell line): 0.4434
- Emax (KYSE30 cell line): 38.59
- AUC (KYSE70, oesophagus, squamous cell carcinoma, 168 hours): 0.6942
- AUC (KYSE150 cell line): 0.3052
- AUC (KYSE270 cell line): 0.3062
- AUC (KYSE410 cell line): 0.4156
- Emax (KYSE410 cell line): 21.4639
- AUC (KYSE510 cell line): 0.1998
- AUC (LNCAP cell line): 0.3974
- AUC (LOUCY cell line): 0.188
- EC50 (LOUCY cell line): 2.47 nM
- IC50 (LOUCY cell line): 2.47 nM
- AUC (LOVO cell line): 0.6362
- AUC (LS411N cell line): 0.3851
- Emax (LS411N cell line): 6.415
- AUC (LU65 cell line): 0.4091
- Emax (LU65 cell line): 12
- AUC (LU99, lung, large cell carcinoma, 168 hours): 0.79
- AUC (LUDLU1 cell line): 0.5307
- EC50 (LUDLU-1, LUDLU1 cell line): 12.6 nM
- IC50 (LUDLU-1, LUDLU1 cell line): 25.8 nM
- AUC (MALME3M, skin, NS, 168 hours): 0.9867
- AUC (MC116 cell line): 0.2527
- AUC (MCF7 cell line): 0.6592
- AUC (MDAMB157, breast, ductal carcinoma, 168 hours): 0.8362
- AUC (MDAMB175VII, breast, ductal carcinoma, 168 hours): 0.7385
- AUC (MDAMB231, breast, NS, 168 hours): 0.7262
- AUC (MDAMB361, breast, NS, 168 hours): 1.117
- AUC (MDAMB415, breast, NS, 168 hours): 0.9413
- AUC (MDAMB436, breast, NS, 168 hours): 0.8438
- AUC (MDAMB453 cell line): 0.4524
- Emax (MDAMB453 cell line): 21.95
- AUC (MDAMB468, breast, NS, 168 hours): 0.6972
- AUC (MESSA cell line): 0.4933
- Emax (MESSA cell line): 24.22
- AUC (MEWO, skin, NS, 168 hours): 0.7237
- AUC (MIAPACA2 cell line): 0.3322
- Emax (MIAPACA2 cell line): 9.711
- AUC (MKN1 cell line): 0.3945
- AUC (MKN45 cell line): 0.4427
- Emax (MKN45 cell line): 19.77
- AUC (MOLT4 cell line): 0.1376
- Emax (MOLT4 cell line): 0.6048
- AUC (MPP89 cell line): 0.6384
- IC50 (MPP89 cell line): > 10000 nM
- AUC (MV411 cell line): 0.2163
- AUC (NAMALWA cell line): 0.2431
- EC50 (NAMALWA cell line): 3.27 nM
- IC50 (NAMALWA cell line): 3.21 nM
- IC50 (NCI-H1435, 168 h, NCIH1435, lung, non-small cell carcinoma, 168 hours): > 10000 nM
- EC50 (NCI-H2023, NCIH2023 cell line): 2.84 nM
- IC50 (NCI-H2023, NCIH2023 cell line): 3.03 nM
- EC50 (NCI-H2172, NCIH2172 cell line): ≥ 10000 nM
- IC50 (NCI-H2172, NCIH2172 cell line): 133 nM
